{"source": "the supplement of paper PMC13386468", "test_in_all_cases": "IC50 for competition of protein binding to Kinobeads", "settings_in_all_cases": "assay detail: Kinobeads competition in P. falciparum blood-stage lysate", "key": {"UniProt Q8IEL1": {"target": "UniProt Q8IEL1"}, "UniProt Q8I2Z8": {"target": "UniProt Q8I2Z8"}, "UniProt Q8IIK2": {"target": "UniProt Q8IIK2"}, "UniProt Q8II24": {"target": "UniProt Q8II24"}, "UniProt Q8IJR8": {"target": "UniProt Q8IJR8"}, "UniProt Q8IIM4": {"target": "UniProt Q8IIM4"}, "UniProt Q7K6A9": {"target": "UniProt Q7K6A9"}, "UniProt Q8I348": {"target": "UniProt Q8I348"}, "UniProt Q8I3T4": {"target": "UniProt Q8I3T4"}, "UniProt Q8IKA0": {"target": "UniProt Q8IKA0"}, "UniProt Q8IE82": {"target": "UniProt Q8IE82"}, "UniProt O77306": {"target": "UniProt O77306"}, "UniProt Q8IJ60": {"target": "UniProt Q8IJ60"}, "UniProt Q8IEU2": {"target": "UniProt Q8IEU2"}, "UniProt O96220": {"target": "UniProt O96220"}, "UniProt Q8I3T1": {"target": "UniProt Q8I3T1"}, "A0A143ZZT8": {"target": "A0A143ZZT8"}, "UniProt Q8IJZ7": {"target": "UniProt Q8IJZ7"}, "UniProt Q8I1R5": {"target": "UniProt Q8I1R5"}, "UniProt Q8IKF6": {"target": "UniProt Q8IKF6"}, "UniProt Q8I5C4": {"target": "UniProt Q8I5C4"}, "UniProt Q8IC35": {"target": "UniProt Q8IC35"}, "UniProt Q8ILL2": {"target": "UniProt Q8ILL2"}, "UniProt Q8I3F0": {"target": "UniProt Q8I3F0"}, "UniProt Q8I5Y3": {"target": "UniProt Q8I5Y3"}, "UniProt Q8IJT1": {"target": "UniProt Q8IJT1"}, "UniProt Q8IM01": {"target": "UniProt Q8IM01"}, "UniProt Q8I468": {"target": "UniProt Q8I468"}, "UniProt Q8I415": {"target": "UniProt Q8I415"}, "UniProt Q8IEK3": {"target": "UniProt Q8IEK3"}, "UniProt C0H4X1": {"target": "UniProt C0H4X1"}, "UniProt Q8IJG6": {"target": "UniProt Q8IJG6"}, "UniProt Q8IBH7": {"target": "UniProt Q8IBH7", "sequence (Q8IBH7 whole entry)": "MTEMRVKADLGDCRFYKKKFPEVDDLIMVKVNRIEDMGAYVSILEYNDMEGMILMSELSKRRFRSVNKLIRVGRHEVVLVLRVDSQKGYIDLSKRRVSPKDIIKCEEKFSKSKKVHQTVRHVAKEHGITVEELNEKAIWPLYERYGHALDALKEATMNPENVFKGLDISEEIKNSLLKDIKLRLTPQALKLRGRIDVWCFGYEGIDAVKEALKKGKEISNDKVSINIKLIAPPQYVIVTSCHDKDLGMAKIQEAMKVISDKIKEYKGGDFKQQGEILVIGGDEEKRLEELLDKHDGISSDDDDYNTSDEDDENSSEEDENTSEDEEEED"}, "UniProt Q8IJA4": {"target": "UniProt Q8IJA4"}, "UniProt Q8I534": {"target": "UniProt Q8I534"}, "UniProt Q8IBQ6": {"target": "UniProt Q8IBQ6"}, "UniProt Q8IAR6": {"target": "UniProt Q8IAR6"}, "UniProt O96258": {"target": "UniProt O96258"}, "UniProt Q8IHU0": {"target": "UniProt Q8IHU0"}, "UniProt Q8IKW5": {"target": "UniProt Q8IKW5"}, "UniProt Q8IL11": {"target": "UniProt Q8IL11", "sequence (Q8IL11 whole entry)": "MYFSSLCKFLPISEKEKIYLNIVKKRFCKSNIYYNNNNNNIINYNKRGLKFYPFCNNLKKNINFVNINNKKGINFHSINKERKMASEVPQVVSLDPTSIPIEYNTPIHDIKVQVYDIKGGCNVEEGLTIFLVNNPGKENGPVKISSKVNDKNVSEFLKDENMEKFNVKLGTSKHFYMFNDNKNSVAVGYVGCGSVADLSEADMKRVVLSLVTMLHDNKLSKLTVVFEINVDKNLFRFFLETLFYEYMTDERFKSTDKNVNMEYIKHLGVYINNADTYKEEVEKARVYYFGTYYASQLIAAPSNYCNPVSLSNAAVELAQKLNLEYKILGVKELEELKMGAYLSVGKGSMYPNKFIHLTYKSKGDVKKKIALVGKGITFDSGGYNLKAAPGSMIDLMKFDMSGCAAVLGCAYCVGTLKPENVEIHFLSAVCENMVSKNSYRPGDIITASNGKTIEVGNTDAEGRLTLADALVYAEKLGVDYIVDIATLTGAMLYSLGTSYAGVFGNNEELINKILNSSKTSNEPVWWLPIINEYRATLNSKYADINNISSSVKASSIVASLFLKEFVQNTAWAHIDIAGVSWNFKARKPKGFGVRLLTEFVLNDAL"}, "UniProt Q5MYR6": {"target": "UniProt Q5MYR6"}, "UniProt Q8IIV2": {"target": "UniProt Q8IIV2"}, "UniProt Q8IFM0": {"target": "UniProt Q8IFM0"}, "UniProt Q8IAX6": {"target": "UniProt Q8IAX6"}, "UniProt C0H4U4": {"target": "UniProt C0H4U4"}, "UniProt Q8IBA0": {"target": "UniProt Q8IBA0"}, "UniProt C6KT50": {"target": "UniProt C6KT50", "sequence (C6KT50 whole entry)": "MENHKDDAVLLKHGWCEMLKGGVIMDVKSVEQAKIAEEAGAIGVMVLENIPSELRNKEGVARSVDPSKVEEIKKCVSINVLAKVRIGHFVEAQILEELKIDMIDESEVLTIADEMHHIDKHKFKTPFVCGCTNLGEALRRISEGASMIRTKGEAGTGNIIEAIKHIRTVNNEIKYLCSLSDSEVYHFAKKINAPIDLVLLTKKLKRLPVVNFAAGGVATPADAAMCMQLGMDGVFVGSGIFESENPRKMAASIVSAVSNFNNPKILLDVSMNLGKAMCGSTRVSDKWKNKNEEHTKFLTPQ"}, "UniProt Q8I501": {"target": "UniProt Q8I501"}, "UniProt Q8IE20": {"target": "UniProt Q8IE20"}, "UniProt Q8IIJ8": {"target": "UniProt Q8IIJ8"}}}
{"smiles": "O=c1[nH]c2ccc(Cl)cc2c(NC2CN3CCC2CC3)c1-c1nc2ccccc2[nH]1", "note": "(stereo unspecified) [CHIR-124]", "values": [{"measurement": "IC50", "setting": "UniProt Q8IEL1", "value": 2.9, "unit": "µM"}, {"measurement": "IC50", "setting": "UniProt Q8I2Z8", "value": "> 20", "unit": "µM"}, {"measurement": "IC50", "setting": "UniProt Q8IIK2", "value": "> 20", "unit": "µM"}, {"measurement": "IC50", "setting": "UniProt Q8II24", "value": "> 20", "unit": "µM"}, {"measurement": "IC50", "setting": "UniProt Q8IJR8", "value": 0.649, "unit": "µM"}, {"measurement": "IC50", "setting": "UniProt Q8IIM4", "value": "> 20", "unit": "µM"}, {"measurement": "IC50", "setting": "UniProt Q7K6A9", "value": "> 20", "unit": "µM"}, {"measurement": "IC50", "setting": "UniProt Q8I348", "value": "> 20", "unit": "µM"}, {"measurement": "IC50", "setting": "UniProt Q8I3T4", "value": "> 20", "unit": "µM"}, {"measurement": "IC50", "setting": "UniProt Q8IKA0", "value": "> 20", "unit": "µM"}, {"measurement": "IC50", "setting": "UniProt Q8IE82", "value": "> 20", "unit": "µM"}, {"measurement": "IC50", "setting": "UniProt O77306", "value": "> 20", "unit": "µM"}, {"measurement": "IC50", "setting": "UniProt Q8IJ60", "value": "> 20", "unit": "µM"}, {"measurement": "IC50", "setting": "UniProt Q8IEU2", "value": "> 20", "unit": "µM"}, {"measurement": "IC50", "setting": "UniProt O96220", "value": "> 20", "unit": "µM"}, {"measurement": "IC50", "setting": "UniProt Q8I3T1", "value": "> 20", "unit": "µM"}, {"measurement": "IC50", "setting": "A0A143ZZT8", "value": "> 20", "unit": "µM"}, {"measurement": "IC50", "setting": "UniProt Q8IJZ7", "value": "> 20", "unit": "µM"}, {"measurement": "IC50", "setting": "UniProt Q8I1R5", "value": "> 20", "unit": "µM"}, {"measurement": "IC50", "setting": "UniProt Q8IKF6", "value": "> 20", "unit": "µM"}, {"measurement": "IC50", "setting": "UniProt Q8I5C4", "value": "> 20", "unit": "µM"}, {"measurement": "IC50", "setting": "UniProt Q8IC35", "value": "> 20", "unit": "µM"}, {"measurement": "IC50", "setting": "UniProt Q8ILL2", "value": "> 20", "unit": "µM"}, {"measurement": "IC50", "setting": "UniProt Q8I3F0", "value": "> 20", "unit": "µM"}, {"measurement": "IC50", "setting": "UniProt Q8I5Y3", "value": "> 20", "unit": "µM"}, {"measurement": "IC50", "setting": "UniProt Q8IJT1", "value": "> 20", "unit": "µM"}, {"measurement": "IC50", "setting": "UniProt Q8IM01", "value": "> 20", "unit": "µM"}, {"measurement": "IC50", "setting": "UniProt Q8I468", "value": "> 20", "unit": "µM"}, {"measurement": "IC50", "setting": "UniProt Q8I415", "value": "> 20", "unit": "µM"}, {"measurement": "IC50", "setting": "UniProt Q8IEK3", "value": "> 20", "unit": "µM"}, {"measurement": "IC50", "setting": "UniProt C0H4X1", "value": "> 20", "unit": "µM"}, {"measurement": "IC50", "setting": "UniProt Q8IJG6", "value": "> 20", "unit": "µM"}, {"measurement": "IC50", "setting": "UniProt Q8IBH7", "value": "> 20", "unit": "µM"}, {"measurement": "IC50", "setting": "UniProt Q8IJA4", "value": "> 20", "unit": "µM"}, {"measurement": "IC50", "setting": "UniProt Q8I534", "value": "> 20", "unit": "µM"}, {"measurement": "IC50", "setting": "UniProt Q8IBQ6", "value": "> 20", "unit": "µM"}, {"measurement": "IC50", "setting": "UniProt Q8IAR6", "value": "> 20", "unit": "µM"}, {"measurement": "IC50", "setting": "UniProt O96258", "value": "> 20", "unit": "µM"}, {"measurement": "IC50", "setting": "UniProt Q8IHU0", "value": "> 20", "unit": "µM"}, {"measurement": "IC50", "setting": "UniProt Q8IKW5", "value": "> 20", "unit": "µM"}, {"measurement": "IC50", "setting": "UniProt Q8IL11", "value": "> 20", "unit": "µM"}, {"measurement": "IC50", "setting": "UniProt Q5MYR6", "value": "> 20", "unit": "µM"}, {"measurement": "IC50", "setting": "UniProt Q8IIV2", "value": "> 20", "unit": "µM"}, {"measurement": "IC50", "setting": "UniProt Q8IFM0", "value": "> 20", "unit": "µM"}, {"measurement": "IC50", "setting": "UniProt Q8IAX6", "value": "> 20", "unit": "µM"}, {"measurement": "IC50", "setting": "UniProt C0H4U4", "value": "> 20", "unit": "µM"}, {"measurement": "IC50", "setting": "UniProt Q8IBA0", "value": "> 20", "unit": "µM"}, {"measurement": "IC50", "setting": "UniProt C6KT50", "value": "> 20", "unit": "µM"}, {"measurement": "IC50", "setting": "UniProt Q8I501", "value": "> 20", "unit": "µM"}, {"measurement": "IC50", "setting": "UniProt Q8IE20", "value": "> 20", "unit": "µM"}, {"measurement": "IC50", "setting": "UniProt Q8IIJ8", "value": "> 20", "unit": "µM"}]}
